Structures are written as SMILES.

As usually defined, the Ki is a dissociation constant, usually derived from enzyme kinetics or from competition with a known ligand. The low end stands for a stronger hold on the target, the high end for a looser hold on the target.

For data set [1], the target named is T1, Adenosine receptor A1 (Homo sapiens) (UniProt P30542).
T1 sequence (whole entry): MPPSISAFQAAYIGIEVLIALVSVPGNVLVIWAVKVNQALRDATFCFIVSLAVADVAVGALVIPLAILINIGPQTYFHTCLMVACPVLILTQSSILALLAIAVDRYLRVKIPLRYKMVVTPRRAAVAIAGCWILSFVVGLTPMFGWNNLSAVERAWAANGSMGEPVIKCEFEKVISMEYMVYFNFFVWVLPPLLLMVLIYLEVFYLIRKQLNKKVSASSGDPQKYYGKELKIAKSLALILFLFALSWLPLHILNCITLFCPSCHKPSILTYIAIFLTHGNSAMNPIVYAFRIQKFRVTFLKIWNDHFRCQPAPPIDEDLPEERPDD
In words: (§1) Selectivity interaction (CEREP panel (GPCRS, ion channels, transporters)) EUB0000193b ADORA1. The following applies: Inactive against protein arginine methyltransferases,, at 10 µM.

For data set [2], the target named is Adenosine receptor A1 (Homo sapiens, UniProt P30542). Described as §1.
Data set [3] concerns the target Adenosine receptor A2a (Homo sapiens) (UniProt P29274). In words: Selectivity interaction (CEREP panel (GPCRS, ion channels, transporters)) EUB0000193b ADORA2A. The settings on record: Inactive against protein arginine methyltransferases,, at 10 µM.
Data set [4] concerns the target T2, Adenosine receptor A3 (Homo sapiens) (UniProt P0DMS8).
T2 sequence (whole entry): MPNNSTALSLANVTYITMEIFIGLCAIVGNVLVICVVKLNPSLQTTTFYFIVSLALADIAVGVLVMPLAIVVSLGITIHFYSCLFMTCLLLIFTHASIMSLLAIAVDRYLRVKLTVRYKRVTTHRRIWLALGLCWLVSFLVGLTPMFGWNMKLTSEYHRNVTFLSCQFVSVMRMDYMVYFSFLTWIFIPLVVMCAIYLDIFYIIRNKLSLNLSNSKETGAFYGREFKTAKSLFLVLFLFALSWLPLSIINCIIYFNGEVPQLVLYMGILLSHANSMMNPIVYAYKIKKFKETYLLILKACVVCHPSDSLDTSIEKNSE
Kind of data set: Selectivity interaction (CEREP panel (GPCRS, ion channels, transporters)) EUB0000193b ADORA3. The following applies: Inactive against protein arginine methyltransferases,, at 10 µM.

Data set [5] addresses Delta-type opioid receptor (Homo sapiens) (UniProt P41143). In words: Selectivity interaction (CEREP panel (GPCRS, ion channels, transporters)) EUB0000193b OPRD1. The following applies: Inactive against protein arginine methyltransferases,, at 10 µM.
The target of data set [6] is Kappa-type opioid receptor (Homo sapiens, UniProt P41145). In words: Selectivity interaction (CEREP panel (GPCRS, ion channels, transporters)) EUB0000193b OPRK1. The following applies: Inactive against protein arginine methyltransferases,, at 10 µM.
The target in data set [7] is Substance-K receptor (Homo sapiens) (UniProt P21452). In words: Selectivity interaction (CEREP panel (GPCRS, ion channels, transporters)) EUB0000193b TACR2. The settings on record: Inactive against protein arginine methyltransferases,, at 10 µM.
Data set [8] addresses T3, Gamma-aminobutyric acid receptor subunit alpha-1 (Homo sapiens) (UniProt P14867).
T3 sequence (whole entry): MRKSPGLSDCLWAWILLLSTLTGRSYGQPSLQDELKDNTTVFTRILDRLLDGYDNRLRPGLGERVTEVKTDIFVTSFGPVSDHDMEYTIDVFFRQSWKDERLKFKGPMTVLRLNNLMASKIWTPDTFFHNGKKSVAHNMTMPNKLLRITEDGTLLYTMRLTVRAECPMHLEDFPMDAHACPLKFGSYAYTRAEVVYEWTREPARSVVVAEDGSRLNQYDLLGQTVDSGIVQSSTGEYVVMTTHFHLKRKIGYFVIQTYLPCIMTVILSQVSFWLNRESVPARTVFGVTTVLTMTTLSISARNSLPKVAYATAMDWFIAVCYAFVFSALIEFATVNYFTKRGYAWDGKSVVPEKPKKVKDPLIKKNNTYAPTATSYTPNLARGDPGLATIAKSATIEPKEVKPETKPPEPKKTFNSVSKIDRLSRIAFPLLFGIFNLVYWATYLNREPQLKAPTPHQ
Kind of data set: (§2) Selectivity interaction (CEREP panel (GPCRS, ion channels, transporters)) EUB0000193b GABRA1. The following applies: Inactive against protein arginine methyltransferases,, at 10 µM.

The target in data set [9] is T4, Gamma-aminobutyric acid receptor subunit alpha-1 (Homo sapiens, UniProt P14867).
T4 sequence (P14867 whole entry): T3 sequence (whole entry)
Described as §2.

Data set [10] has as its target Histone-lysine N-methyltransferase NSD2 (Homo sapiens) (UniProt O96028). Kind of data set: Selectivity interaction (Epigenetic methyltransferases panel) EUB0000193b NSD2. The settings on record: Inactive against protein arginine methyltransferases,, at 10 µM.
Data set [11] concerns the target Ribosomal protein S6 kinase alpha-3 (Homo sapiens) (UniProt P51812). In words: Selectivity interaction (KinomeScan (DiscoverX)) EUB0000303b RPS6KA3. The settings on record: at 1 µM.
For data set [12], the target named is T5, Serine/threonine-protein kinase Sgk1 (Homo sapiens) (UniProt O00141).
T5 sequence (whole entry): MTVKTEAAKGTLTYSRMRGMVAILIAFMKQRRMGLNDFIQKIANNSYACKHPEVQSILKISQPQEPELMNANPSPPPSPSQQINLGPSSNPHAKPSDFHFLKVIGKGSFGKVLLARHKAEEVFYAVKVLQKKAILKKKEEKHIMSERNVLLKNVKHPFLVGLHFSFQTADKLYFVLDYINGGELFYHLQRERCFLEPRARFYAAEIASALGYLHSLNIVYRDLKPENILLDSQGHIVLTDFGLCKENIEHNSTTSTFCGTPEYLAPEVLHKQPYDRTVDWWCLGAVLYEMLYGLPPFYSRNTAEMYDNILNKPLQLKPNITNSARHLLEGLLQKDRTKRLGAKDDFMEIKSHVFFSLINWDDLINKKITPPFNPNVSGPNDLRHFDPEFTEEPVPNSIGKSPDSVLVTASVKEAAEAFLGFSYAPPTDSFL
In words: Selectivity interaction (KinomeScan (DiscoverX)) EUB0000303b SGK1. The settings on record: at 1 µM.

For data set [13], the target named is Sodium-dependent dopamine transporter (Homo sapiens, UniProt Q01959). In words: Selectivity interaction (GPCR panel (PDSP screen)) EUB0000303b SLC6A3.
The target in data set [14] is Serine/threonine-protein kinase WNK2 (Homo sapiens) (UniProt Q9Y3S1). Kind of data set: Selectivity interaction (KinomeScan (DiscoverX)) EUB0000303b WNK2. The settings on record: at 1 µM.
The target of data set [15] is T4, Gamma-aminobutyric acid receptor subunit alpha-1. In words: Selectivity interaction (GPCR panel (PDSP screen)) EUB0000303b GABRA1.
Data set [16] has as its target Voltage-gated inwardly rectifying potassium channel KCNH2 (Homo sapiens, UniProt Q12809). In words: Selectivity interaction (Ricerca panel (GPCRs, ion channels, transporters, enzymes, and proteases)) EUB0000303b KCNH2. The settings on record: at 10 µM.
The target of data set [17] is T6, Ephrin type-B receptor 6 (Homo sapiens) (UniProt O15197).
T6 sequence (whole entry): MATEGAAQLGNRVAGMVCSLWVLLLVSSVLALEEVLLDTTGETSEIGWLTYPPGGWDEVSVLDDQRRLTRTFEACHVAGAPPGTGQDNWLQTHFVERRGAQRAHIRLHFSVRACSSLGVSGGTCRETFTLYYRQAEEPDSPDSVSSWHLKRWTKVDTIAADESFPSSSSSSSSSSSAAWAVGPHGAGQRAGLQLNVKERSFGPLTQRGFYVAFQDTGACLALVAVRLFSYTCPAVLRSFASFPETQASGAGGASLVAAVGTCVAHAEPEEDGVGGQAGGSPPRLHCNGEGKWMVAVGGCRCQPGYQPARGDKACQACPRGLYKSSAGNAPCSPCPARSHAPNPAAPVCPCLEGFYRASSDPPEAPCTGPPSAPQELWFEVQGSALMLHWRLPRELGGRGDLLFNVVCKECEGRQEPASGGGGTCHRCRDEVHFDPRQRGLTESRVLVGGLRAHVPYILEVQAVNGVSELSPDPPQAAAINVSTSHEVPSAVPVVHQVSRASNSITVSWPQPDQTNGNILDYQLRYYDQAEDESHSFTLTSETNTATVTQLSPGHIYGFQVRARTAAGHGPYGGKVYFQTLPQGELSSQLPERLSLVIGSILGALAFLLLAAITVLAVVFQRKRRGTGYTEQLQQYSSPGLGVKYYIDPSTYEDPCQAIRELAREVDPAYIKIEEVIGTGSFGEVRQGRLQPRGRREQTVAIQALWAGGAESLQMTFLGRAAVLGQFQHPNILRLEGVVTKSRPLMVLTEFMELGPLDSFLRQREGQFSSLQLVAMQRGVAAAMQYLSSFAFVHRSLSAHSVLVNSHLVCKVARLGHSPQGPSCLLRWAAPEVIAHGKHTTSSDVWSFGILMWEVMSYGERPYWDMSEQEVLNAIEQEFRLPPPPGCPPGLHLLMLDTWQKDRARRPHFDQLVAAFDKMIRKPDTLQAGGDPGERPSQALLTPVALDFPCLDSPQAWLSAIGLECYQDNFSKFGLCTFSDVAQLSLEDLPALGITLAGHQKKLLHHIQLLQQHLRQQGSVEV
In words: Selectivity interaction (KinomeScan (DiscoverX)) EUB0000303b EPHB6. The settings on record: at 1 µM.

The target of data set [18] is Beta-adrenergic receptor kinase 1 (Homo sapiens) (UniProt P25098). Kind of data set: Selectivity interaction (KinomeScan (DiscoverX)) EUB0000303b ADRBK1. The settings on record: at 1 µM.
Data set [19] deals with T7, Serine/threonine-protein kinase LATS2 (Homo sapiens) (UniProt Q9NRM7).
T7 sequence (whole entry): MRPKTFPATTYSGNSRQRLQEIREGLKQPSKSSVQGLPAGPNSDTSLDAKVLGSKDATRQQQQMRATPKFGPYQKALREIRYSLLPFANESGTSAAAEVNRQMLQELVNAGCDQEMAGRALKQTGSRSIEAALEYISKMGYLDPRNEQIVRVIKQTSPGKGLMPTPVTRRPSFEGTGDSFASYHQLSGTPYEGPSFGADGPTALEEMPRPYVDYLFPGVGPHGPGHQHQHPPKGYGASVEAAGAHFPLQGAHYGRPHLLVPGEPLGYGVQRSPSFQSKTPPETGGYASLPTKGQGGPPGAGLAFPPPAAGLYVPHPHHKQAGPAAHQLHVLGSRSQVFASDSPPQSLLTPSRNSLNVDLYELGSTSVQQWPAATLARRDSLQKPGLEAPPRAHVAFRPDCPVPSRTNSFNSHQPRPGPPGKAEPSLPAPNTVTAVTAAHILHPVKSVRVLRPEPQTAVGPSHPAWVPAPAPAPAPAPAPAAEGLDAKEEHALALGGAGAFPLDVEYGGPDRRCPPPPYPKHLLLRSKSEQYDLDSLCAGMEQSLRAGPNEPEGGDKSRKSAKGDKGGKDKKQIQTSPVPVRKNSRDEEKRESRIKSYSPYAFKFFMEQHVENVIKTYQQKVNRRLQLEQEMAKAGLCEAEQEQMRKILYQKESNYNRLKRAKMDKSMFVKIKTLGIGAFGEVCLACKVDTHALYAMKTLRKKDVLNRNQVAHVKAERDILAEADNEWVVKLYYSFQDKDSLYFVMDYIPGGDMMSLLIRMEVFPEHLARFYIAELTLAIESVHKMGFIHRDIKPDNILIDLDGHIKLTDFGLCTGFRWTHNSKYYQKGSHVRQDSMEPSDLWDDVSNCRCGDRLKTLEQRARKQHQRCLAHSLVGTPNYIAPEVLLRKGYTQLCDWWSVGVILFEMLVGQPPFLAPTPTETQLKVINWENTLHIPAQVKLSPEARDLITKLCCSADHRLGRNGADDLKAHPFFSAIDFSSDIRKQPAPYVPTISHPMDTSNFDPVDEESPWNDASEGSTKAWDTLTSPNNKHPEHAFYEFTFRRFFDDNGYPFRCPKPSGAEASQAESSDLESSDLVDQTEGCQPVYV
In words: Selectivity interaction (KinomeScan (DiscoverX)) EUB0000303b LATS2. The settings on record: at 1 µM.

For data set [20], the target named is Glutamate receptor ionotropic, NMDA 1 (Homo sapiens, UniProt Q05586). Kind of data set: Selectivity interaction (PRESTO-Tango GPCR-ome screening) EUB0000539a GRIN1.

Serine/threonine-protein kinase WNK2 (Homo sapiens), sequence (Q9Y3S1 whole entry): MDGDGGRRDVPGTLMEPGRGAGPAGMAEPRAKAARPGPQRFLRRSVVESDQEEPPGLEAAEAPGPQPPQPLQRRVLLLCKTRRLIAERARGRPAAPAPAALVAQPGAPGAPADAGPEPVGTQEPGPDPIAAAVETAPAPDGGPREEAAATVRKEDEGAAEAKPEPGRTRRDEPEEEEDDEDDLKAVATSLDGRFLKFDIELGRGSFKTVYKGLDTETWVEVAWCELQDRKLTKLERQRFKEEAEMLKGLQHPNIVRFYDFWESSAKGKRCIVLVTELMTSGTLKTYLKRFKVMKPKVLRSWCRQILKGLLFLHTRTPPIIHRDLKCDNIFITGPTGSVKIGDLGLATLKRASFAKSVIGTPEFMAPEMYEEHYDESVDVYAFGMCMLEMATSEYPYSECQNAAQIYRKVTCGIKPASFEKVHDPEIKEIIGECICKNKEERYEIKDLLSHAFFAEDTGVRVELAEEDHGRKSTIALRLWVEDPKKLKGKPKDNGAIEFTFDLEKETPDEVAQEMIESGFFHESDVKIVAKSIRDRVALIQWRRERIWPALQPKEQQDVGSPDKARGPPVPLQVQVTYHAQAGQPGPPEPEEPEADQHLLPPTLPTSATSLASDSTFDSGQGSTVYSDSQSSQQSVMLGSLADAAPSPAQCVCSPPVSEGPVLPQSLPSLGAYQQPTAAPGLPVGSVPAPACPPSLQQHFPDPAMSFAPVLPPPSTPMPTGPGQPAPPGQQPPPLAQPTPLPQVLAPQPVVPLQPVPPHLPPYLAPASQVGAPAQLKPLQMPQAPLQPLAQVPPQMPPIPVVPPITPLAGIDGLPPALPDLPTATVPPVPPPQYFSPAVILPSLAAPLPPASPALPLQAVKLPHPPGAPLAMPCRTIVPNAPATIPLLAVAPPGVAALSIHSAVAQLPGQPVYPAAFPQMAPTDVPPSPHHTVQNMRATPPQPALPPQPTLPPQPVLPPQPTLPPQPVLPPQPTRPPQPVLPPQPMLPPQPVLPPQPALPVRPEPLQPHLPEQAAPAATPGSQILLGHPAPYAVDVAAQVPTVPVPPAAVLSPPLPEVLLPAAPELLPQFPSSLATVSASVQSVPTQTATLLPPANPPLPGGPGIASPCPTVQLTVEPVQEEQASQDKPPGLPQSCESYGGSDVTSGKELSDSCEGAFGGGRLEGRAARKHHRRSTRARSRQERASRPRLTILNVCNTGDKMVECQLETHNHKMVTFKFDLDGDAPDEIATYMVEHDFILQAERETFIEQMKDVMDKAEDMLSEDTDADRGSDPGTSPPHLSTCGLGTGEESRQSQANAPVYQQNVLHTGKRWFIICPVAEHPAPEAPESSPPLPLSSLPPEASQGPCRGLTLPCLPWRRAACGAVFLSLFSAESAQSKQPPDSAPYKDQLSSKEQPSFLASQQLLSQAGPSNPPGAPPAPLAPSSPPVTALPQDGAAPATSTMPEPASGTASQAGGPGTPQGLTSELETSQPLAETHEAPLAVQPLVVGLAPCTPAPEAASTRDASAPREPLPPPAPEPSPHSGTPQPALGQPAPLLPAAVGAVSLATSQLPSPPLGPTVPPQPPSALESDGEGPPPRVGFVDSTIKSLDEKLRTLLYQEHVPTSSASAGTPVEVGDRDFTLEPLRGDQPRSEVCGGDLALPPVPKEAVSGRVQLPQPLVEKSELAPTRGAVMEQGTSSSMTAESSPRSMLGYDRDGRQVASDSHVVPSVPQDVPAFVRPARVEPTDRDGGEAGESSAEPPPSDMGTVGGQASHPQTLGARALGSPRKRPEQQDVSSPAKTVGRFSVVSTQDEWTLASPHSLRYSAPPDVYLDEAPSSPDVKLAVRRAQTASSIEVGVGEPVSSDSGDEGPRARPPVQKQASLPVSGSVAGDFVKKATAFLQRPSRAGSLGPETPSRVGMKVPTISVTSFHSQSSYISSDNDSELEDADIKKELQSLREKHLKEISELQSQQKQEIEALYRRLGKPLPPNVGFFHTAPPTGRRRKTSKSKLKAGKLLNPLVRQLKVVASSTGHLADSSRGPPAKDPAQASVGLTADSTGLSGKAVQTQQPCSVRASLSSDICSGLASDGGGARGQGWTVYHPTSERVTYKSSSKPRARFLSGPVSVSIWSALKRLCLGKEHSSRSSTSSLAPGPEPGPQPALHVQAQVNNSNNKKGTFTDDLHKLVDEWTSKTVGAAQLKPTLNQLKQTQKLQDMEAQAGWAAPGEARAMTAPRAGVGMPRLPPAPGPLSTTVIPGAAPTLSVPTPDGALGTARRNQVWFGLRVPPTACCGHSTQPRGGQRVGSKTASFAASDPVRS
Ribosomal protein S6 kinase alpha-3 (Homo sapiens), sequence (P51812 whole entry): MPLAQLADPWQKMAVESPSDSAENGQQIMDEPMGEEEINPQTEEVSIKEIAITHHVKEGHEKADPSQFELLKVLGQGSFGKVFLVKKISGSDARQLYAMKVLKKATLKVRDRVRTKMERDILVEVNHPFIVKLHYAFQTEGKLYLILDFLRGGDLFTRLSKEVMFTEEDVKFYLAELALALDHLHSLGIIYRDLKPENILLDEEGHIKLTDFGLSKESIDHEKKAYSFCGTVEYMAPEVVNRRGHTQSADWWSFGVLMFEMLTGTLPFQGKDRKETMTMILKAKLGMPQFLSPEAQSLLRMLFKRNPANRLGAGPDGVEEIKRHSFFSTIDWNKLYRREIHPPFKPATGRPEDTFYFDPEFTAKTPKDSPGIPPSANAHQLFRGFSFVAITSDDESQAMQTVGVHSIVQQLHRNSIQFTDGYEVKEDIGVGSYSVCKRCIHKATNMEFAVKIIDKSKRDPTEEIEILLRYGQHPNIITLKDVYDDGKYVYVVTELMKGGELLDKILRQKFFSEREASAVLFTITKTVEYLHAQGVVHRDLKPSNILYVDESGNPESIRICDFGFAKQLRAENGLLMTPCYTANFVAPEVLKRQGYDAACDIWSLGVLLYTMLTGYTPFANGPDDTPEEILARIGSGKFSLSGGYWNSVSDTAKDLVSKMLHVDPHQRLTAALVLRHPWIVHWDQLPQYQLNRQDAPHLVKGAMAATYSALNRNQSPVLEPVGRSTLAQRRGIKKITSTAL
Delta-type opioid receptor (Homo sapiens), sequence (P41143 whole entry): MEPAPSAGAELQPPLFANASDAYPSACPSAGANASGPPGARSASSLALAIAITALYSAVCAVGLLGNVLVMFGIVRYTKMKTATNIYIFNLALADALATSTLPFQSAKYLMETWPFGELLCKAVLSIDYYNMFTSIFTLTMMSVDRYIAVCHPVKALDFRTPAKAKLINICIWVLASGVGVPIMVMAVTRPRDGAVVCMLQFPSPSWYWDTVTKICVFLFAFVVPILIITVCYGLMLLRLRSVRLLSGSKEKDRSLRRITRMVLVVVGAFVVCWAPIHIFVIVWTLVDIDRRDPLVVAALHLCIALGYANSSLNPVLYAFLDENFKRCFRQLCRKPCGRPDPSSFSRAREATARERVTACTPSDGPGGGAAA
Adenosine receptor A2a (Homo sapiens), sequence (P29274 whole entry): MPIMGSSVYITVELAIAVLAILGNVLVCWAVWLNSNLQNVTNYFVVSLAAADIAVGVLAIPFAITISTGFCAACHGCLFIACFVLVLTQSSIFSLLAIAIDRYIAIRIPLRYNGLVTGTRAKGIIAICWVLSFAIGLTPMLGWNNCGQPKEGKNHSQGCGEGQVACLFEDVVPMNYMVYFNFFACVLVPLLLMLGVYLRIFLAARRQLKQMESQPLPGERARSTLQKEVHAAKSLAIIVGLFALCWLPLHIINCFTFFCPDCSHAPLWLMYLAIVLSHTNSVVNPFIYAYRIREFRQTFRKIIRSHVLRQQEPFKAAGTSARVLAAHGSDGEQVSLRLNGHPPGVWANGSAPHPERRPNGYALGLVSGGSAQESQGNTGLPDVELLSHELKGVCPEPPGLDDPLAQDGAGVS
Kappa-type opioid receptor, sequence (P41145 whole entry): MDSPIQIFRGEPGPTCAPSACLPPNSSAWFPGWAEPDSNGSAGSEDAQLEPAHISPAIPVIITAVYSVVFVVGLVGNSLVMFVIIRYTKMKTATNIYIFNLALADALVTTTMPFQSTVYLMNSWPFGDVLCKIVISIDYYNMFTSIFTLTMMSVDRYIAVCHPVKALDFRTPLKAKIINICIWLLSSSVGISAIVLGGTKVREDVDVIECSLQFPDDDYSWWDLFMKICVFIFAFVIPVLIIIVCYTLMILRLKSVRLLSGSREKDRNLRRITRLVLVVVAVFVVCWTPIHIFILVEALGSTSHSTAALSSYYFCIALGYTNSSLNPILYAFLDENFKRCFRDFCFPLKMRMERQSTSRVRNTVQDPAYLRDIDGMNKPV
Beta-adrenergic receptor kinase 1 (Homo sapiens), sequence (P25098 whole entry): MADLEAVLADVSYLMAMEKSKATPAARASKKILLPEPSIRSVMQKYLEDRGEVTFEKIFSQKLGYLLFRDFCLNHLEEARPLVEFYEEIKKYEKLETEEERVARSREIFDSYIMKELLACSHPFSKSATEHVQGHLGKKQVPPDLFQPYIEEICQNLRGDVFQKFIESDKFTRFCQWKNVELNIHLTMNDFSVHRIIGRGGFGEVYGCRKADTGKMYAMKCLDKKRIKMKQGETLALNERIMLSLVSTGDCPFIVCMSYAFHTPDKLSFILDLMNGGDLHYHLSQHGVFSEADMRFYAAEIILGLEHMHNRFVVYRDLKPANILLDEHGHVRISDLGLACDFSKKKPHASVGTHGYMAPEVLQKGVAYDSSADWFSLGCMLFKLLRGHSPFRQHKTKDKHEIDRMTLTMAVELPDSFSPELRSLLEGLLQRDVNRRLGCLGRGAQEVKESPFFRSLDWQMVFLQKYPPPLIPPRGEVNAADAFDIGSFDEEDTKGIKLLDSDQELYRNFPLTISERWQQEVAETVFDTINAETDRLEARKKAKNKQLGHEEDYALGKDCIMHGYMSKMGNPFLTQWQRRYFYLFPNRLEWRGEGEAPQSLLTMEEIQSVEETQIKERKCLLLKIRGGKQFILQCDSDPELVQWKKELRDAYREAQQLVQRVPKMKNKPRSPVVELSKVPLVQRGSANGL

As to `Clc1cc2c(NC3CCCC3)nnc(-c3ccncc3)c2cc1Cl`, the % of inhibition stood at 98% in data set [1]; 98% in [3]; 74% in [4]; 51% in data set [5]; 62% in [6]; 61% in [7]. The same compound displayed a % of inhibition in data set [8] of 90%. Besides, the inhibition constant (Ki) in [2] was determined as 0.012 µM; in [9] it was 1.8 µM. The compound further came in with a % of activity remaining in data set [10] of 90%.

Consider `Cc1nc(N2CC[C@H](O)C2)ncc1-c1cc(C(F)(F)F)cc2[nH]ncc12`, for which the % of control came to 48% in data set [11]; 49% in data set [12]; 41% in data set [14]; 36% in data set [17]; 42% in data set [18]; 26% in data set [19]. Besides, the figures for the Ki in [13] and in data set [15] were 1.68 µM and 4.54 µM, respectively. Moreover, the “% of inhibition” value in data set [16] came to 1%.

`Cc1ccc2nc(CNCCCOc3ccccc3)cc(O)c2c1` [UCSF924]: affinity in data set [20] was put at a Ki of 1 µM. In other words, the single-digit micromolar range.

For the origin of these results see ChEMBL document CHEMBL5212743, “Selectivity Literature for EUbOPEN Chemogenomics Library wave 3” (2023).
